The values below come from patent US20250144020A1, “ULTRA-LONG FLOATING HYDROGEL RAFT FOR PROLONGED GASTRIC RETENTION AND APPLICATIONS REQUIRING BUOYANCY WITH CONTROLLED-RELEASE” (Nanyang Technological University, priority 2022, published 2025).

Structures are written as SMILES. Counter-ions that a name gives are not always drawn.

For data set [1] the following is noted: cited from earlier work.
A short description of data set [2]: In vitro release of MT in FaSGF with model fitting. The following applies: 37° C., 150 rpm. Type of data set: physicochemical. The protocol: Receptacle cap type rafts were used for the release studies as the receptacle allows the loading of the FD, MP, and FM. The receptacle cap assembly also ensures that the system can be adopted for other drugs easily. This design was used to prevent the interaction of drugs with water in the hydrogel. 100 mg of free drug MT was weighed in triplicates and added to the receptacle of the raft before closing the lid to complete the assembly. Similarly, 20 mg of the MPs (prepared in Example 7) or one FM (prepared in Example 8) was weighed in replicates and added to the receptacle of the raft and closed with cap to obtain the raft containing MT in different forms. Drug forms that were not encased in the raft served as controls.
Required amounts of FD, MP, or FM were added to the receptacle of the raft, and the cap was used to close the structure to obtain FD encased in raft (FD-R), MP encased in raft (MP-R), and FM encased in raft (FM-R). This raft assembly was then tested under simulated gastric conditions using FaSGF in a shaking incubator (150 rpm) at 37° C. All experiments were carried out in triplicates. […] The collected samples were analyzed for the drugs using HPLC. For MT, acetonitrile:PBS (60:40) (PBS adjusted to pH 4.7) was used as the mobile phase at a flow rate of 0.8 ml/min and detected at 244 nm. […]

Data set [3] is described as follows: In vitro release of Ris in FaSGF with model fitting. Particulars: not encased in raft. Type of data set: physicochemical.
Protocol: This raft assembly was then tested under simulated gastric conditions using FaSGF in a shaking incubator (150 rpm) at 37° C. All experiments were carried out in triplicates. At specified time points, the release media were collected and replaced with an equal volume of fresh FaSGF. The collected samples were analyzed for the drugs using HPLC. […] Each drug form, without the raft, served as a control. To elucidate the mechanism of drug release, the release data were fitted to mathematical models.
Four different forms of the drug were used: 1. free drug; 2. commercial tablet; 3. drug encapsulated MPs; and 4. drug encapsulated FMes. […] Each drug form, without the raft, served as a control.
Receptacle cap type rafts were used for the release studies as the receptacle allows the loading of the FD, MP, and FM. […] Drug forms that were not encased in the raft served as controls.

As for `COCCc1ccc(OCC(O)CNC(C)C)cc1` (stereo not shown) [MT, metoprolol tartrate], the “water solubility (in words)” value in data set [1] is given as “water-soluble”. In addition, in data set [2], the “time of MT release (sustained over / dissolved completely in), in words” value is “one hour”.
Regarding `Cc1nc2n(c(=O)c1CCN1CCC(c3noc4cc(F)ccc34)CC1)CCCC2` [Ris, Risperidone], the “water solubility (in words)” value in data set [1] is given as “insoluble in water”. Moreover, the “time to complete dissolution, uncased” value in data set [3] was 1 h.
